# Data reported in publication PMC9045388, “Identification of a KPC Variant Conferring Resistance to Ceftazidime-Avibactam from ST11 Carbapenem-Resistant Klebsiella pneumoniae Strains” (Microbiology Spectrum, 2022).
# Target: T1, KPC-2 (Klebsiella pneumoniae, UniProt Q9F663)
# T1 construct: untagged, full gene in pCR-BluntII-Topo (pTOPO-KPC-2), expressed in E. coli TOP10; ion exchange and gel filtration
# Assay: steady-state hydrolysis, UV-Vis at […] nm
# Type: biochemical
# Details: 100 mM sodium phosphate, pH 7.0
# T1 sequence (Q9F663 25-293 limits assumed): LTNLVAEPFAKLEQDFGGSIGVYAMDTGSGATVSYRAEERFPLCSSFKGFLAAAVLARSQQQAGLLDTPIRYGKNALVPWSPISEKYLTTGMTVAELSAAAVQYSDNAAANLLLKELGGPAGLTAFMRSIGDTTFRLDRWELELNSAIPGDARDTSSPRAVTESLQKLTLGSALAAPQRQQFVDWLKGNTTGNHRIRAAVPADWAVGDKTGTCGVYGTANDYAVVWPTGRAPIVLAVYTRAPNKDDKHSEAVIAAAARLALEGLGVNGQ
compound,measurement,value
O=C(Cc1cccs1)N[C@@H]1C(=O)N2C(C(=O)O)=C(/C=C/c3ccc([N+](=O)[O-])cc3[N+](=O)[O-])CS[C@H]12 [nitrocefin],Km,17.9 µM
